In patent US20260223850A1, “SUBSTITUTED PYRROLIDONE COMPOUND, PREPARATION METHOD THEREFOR, COMPOSITION AND APPLICATION THEREOF” (QINGDAO KINGAGROOT CHEMICAL COMPOUND CO., LTD., priority 2023, published 2026):

Columns and labels:
Format in all cases: in vivo
Conditions in all cases: 120 g a.i./ha, seedling stage sealing, 15 days, fresh weight control rate
Echinochloa crusgalli = experiment: Seedling stage sealing experiment for water-seeding
Excerpt: (§1) The activity level criteria for plant damage (i.e., growth control rate) are as follows: • Level 9: completely dead; • Level 8: growth control rate greater than or equal to 90% and less than 100%; • Level 7: growth control rate greater than or equal to 80% and less than 90%; • Level 6: growth control rate greater than or equal to 70% and less than 80%; • Level 5: growth control rate greater than or equal to 50% and less than 70%; • Level 4: growth control rate greater than or equal to 30% and less than 50%; • Level 3: growth control rate greater than or equal to 20% and less than 30%; • Level 2: growth control rate greater than or equal to 10% and less than 20%; • Level 1: growth control rate less than 10%; • Level 0: no effect.
(§2) The above growth control rates are fresh weight control rates.
(§3) Echinochloa phyllopogon, Digitaria sanguinalis, Huaidao (rice cultivar), etc. were broadcasted on the surface of nutrition bowls filled with soil and fully covered by soil. The foregoing well-prepared nutrition bowls were then placed in a cultivation box with water filled to a suitable height to keep the soil in the nutrition bowls moist. A test compound of the present invention was individually dissolved with acetone, then diluted into solution of a certain concentration using a certain amount of water, and sprayed using a spray tower. The plants were placed on a greenhouse seedbed and cultured for 15 days, and the experimental results were then collected. The compound was applied at 120, 60, 30 and 15 g a.i./ha in triplicate, and the results were averaged.

Echinochloa phyllopogon = experiment: as above
Excerpt: as §1, §2, §3

Huaidao (rice cultivar) = experiment: Seedling stage sealing experiment for water-seeding (crop safety)
Excerpt: as §1, §2, §3

| SMILES | Echinochloa crusgalli activity level (growth control rate) (Echinochloa crusgalli) | Echinochloa phyllopogon activity level (growth control rate) (Echinochloa phyllopogon) | Huaidao (rice cultivar) plant damage level (Huaidao (rice cultivar)) |
| --- | --- | --- | --- |
| Cc1cccc([C@H]2CN(C)C(=O)[C@@H]2C(=O)Nc2cnn(C)c2C(F)(F)F)c1 [136′] | 9 | 9 | 0 |
| C=Cc1c(NC(=O)[C@H]2C(=O)N(C)C[C@@H]2c2cccc(C)c2)cnn1C [137′] | 6 (Level 6: growth control rate greater than or equal to 70% and less than 80%) | 5 (Level 5: growth control rate greater than or equal to 50% and less than 70%) | 0 |
| Cc1cccc([C@H]2CN(C)C(=O)[C@@H]2C(=O)Nc2cnn(C(C)C)c2C2CC2)c1 [138′] | 7 (Level 7: growth control rate greater than or equal to 80% and less than 90%) | 6 (Level 6: growth control rate greater than or equal to 70% and less than 80%) | 0 |
| CN1C[C@H](c2cccc(C(F)(F)F)c2)[C@@H](C(=O)Nc2cnn(C)c2)C1=O [156′] | 9 | 7 (Level 7: growth control rate greater than or equal to 80% and less than 90%) | 0 |
| C#CCn1ncc(NC(=O)[C@H]2C(=O)N(C)C[C@@H]2c2cccc(C(F)(F)F)c2)c1Cl [163′] | 9 | 8 (Level 8: growth control rate greater than or equal to 90% and less than 100%) | 0 |
| CN1C[C@H](c2cccc(C(F)(F)F)c2)[C@@H](C(=O)Nc2cnn(C)c2C#N)C1=O [187′] | 9 | 9 | 0 |
| Cc1c(NC(=O)[C@H]2C(=O)N(C)C[C@@H]2c2cccc(C(F)(F)F)c2)cnn1C [189′] | 9 | 9 | 0 |
| COC(=O)c1c(NC(=O)[C@H]2C(=O)N(C)C[C@@H]2c2cccc(C(F)(F)F)c2)cnn1C [199′] | 6 (Level 6: growth control rate greater than or equal to 70% and less than 80%) | 6 (Level 6: growth control rate greater than or equal to 70% and less than 80%) | 0 |
| Cc1nn(C(F)F)c(Cl)c1NC(=O)[C@H]1C(=O)N(C)C[C@@H]1c1cccc(C(F)(F)F)c1 [209′] | 7 (Level 7: growth control rate greater than or equal to 80% and less than 90%) | 6 (Level 6: growth control rate greater than or equal to 70% and less than 80%) | 0 |
| COc1cccc([C@H]2CN(C)C(=O)[C@@H]2C(=O)Nc2cnn(C(F)F)c2Cl)c1 [215′] | 9 | 8 (Level 8: growth control rate greater than or equal to 90% and less than 100%) | 0 |
| CCc1ccc([C@H]2CN(C)C(=O)[C@@H]2C(=O)Nc2cnn(C)c2Cl)cc1 [244′] | 9 | 7 (Level 7: growth control rate greater than or equal to 80% and less than 90%) | 0 |
| Cc1cc(F)cc([C@H]2CN(C)C(=O)[C@@H]2C(=O)Nc2cnn(C)c2Cl)c1 [264′] | 9 | 9 | 0 |
| Cc1cc(C)cc([C@H]2CN(C)C(=O)[C@@H]2C(=O)Nc2cnn(CC(F)(F)F)c2Cl)c1 [268′] | 7 (Level 7: growth control rate greater than or equal to 80% and less than 90%) | 6 (Level 6: growth control rate greater than or equal to 70% and less than 80%) | 0 |
| Cc1cc(C)cc([C@H]2CN(C)C(=O)[C@@H]2C(=O)Nc2cnn(C)c2F)c1 [271′] | 9 | 9 | 0 |
| Cc1cc(C)cc([C@H]2CN(C)C(=O)[C@@H]2C(=O)Nc2cnn(C)c2C)c1 [272′] | 9 | 7 (Level 7: growth control rate greater than or equal to 80% and less than 90%) | 0 |
| CCc1c(NC(=O)[C@H]2C(=O)N(C)C[C@@H]2c2cc(C)cc(C)c2)cnn1C [273′] | 9 | 6 (Level 6: growth control rate greater than or equal to 70% and less than 80%) | 0 |
| C=C(C)c1c(NC(=O)[C@H]2C(=O)N(C)C[C@@H]2c2cc(C)cc(C)c2)cnn1C [276′] | 9 | 6 (Level 6: growth control rate greater than or equal to 70% and less than 80%) | 0 |
| CN1C[C@H](c2cc(Br)cc(C(F)(F)F)c2)[C@@H](C(=O)Nc2cnn(C)c2Cl)C1=O [294′] | 9 | 7 (Level 7: growth control rate greater than or equal to 80% and less than 90%) | 0 |
| COc1cc(OC)cc([C@H]2CN(C)C(=O)[C@@H]2C(=O)Nc2cnn(C)c2Cl)c1 [302′] | 9 | 6 (Level 6: growth control rate greater than or equal to 70% and less than 80%) | 0 |
| Cc1ccc([C@H]2CN(C)C(=O)[C@@H]2C(=O)Nc2cnn(C)c2Cl)cc1C [314′] | 9 | 9 | 0 |
| CN1C[C@H](c2cc(Cl)c(Cl)c(C(F)(F)F)c2)[C@@H](C(=O)Nc2cnn(C)c2Cl)C1=O [326′] | 8 (Level 8: growth control rate greater than or equal to 90% and less than 100%) | 7 (Level 7: growth control rate greater than or equal to 80% and less than 90%) | 0 |
